Laboratory results reported in US8722667B2, “Compositions and methods for inhibiting the proliferation of cells” (The Regents of the University of Michigan, priority 1999, dated 2014).

Legend:
[1] = biological target: T1, mitochondrial F1F0-ATPase (Bos taurus, UniProt P13621); assay: ATPase activity in sub-mitochondrial particles (SMPs); format: biochemical, bovine; conditions: at 80 μM
T1 construct: from tissue
Source text: Oligomycin, a macrolide natural product that binds to the mitochondrial F1F0-ATPase, induces a state 3 to 4 transition and generates O2^− like Bz-423. Based on these similarities, it is possible that the F1F0-ATPase is also the molecular target for Bz-423. To test this hypothesis, the effect of Bz-423 on ATPase activity in sub-mitochondrial particles (SMPs) was examined.
>40 derivatives of Bz-423 were developed to determine the elements on this novel agent required for biological activity. […] The potency of these analogues in cell based assays correlated with the ED50 values in ATPase inhibition experiments using SMPs.

[2] = test system: isolated rat liver mitochondria; assay: ROS production in isolated mitochondria (DCF formation); format: biochemical; conditions: for ROS production: mitochondria in state 4; for increase of the rate of ROS production versus control: state 3 respiration, after the induction phase
Description: Male Long Evans rats are starved overnight and sacrificed by decapitation. Liver samples are homogenized in ice cold buffer A (250 mM sucrose, 10 mM Tris, 0.1 mM EGTA, pH 7.4), and nuclei and cellular debris are pelleted ([…], 830g, 4° C.). Mitochondria are collected by centrifugation (10 min, 15,000g, 4° C.), and the supernatant is collected as the S15 fraction. The mitochondrial pellet is washed three times with buffer B (250 mM sucrose, 10 mM Tris, pH 7.4), and re-suspended in buffer B at 20-30 mg/mL. Mitochondria are diluted (0.5 mg/mL) in buffer C (200 mM sucrose, 10 mM Tris, pH 7.4, 1 mM KH2PO4, 10 μM EGTA, 2.5 μM rotenone, 5 mM succinate) containing 2′,7′-dichlorodihydrofluorescin diacetate (DCFH-DA, 1 μM). For state 3 measurements, ADP (2 mM) is included in the buffer, and prior to the addition of Bz-423, mitochondria are allowed to charge for 2 min. To induce state 4, oligomycin (10 μM) is added to buffer C. […] To detect effects on O2^− and delta ψm, mitochondria are incubated for 15 min at 37° C. in buffer C with vehicle, Bz-423, or CCCP containing DHE (5 μM) or DIOC6(3) (20 nM), and aliquots are removed for analysis by fluorescence microscopy.
O2^− production by Bz-423 may result from binding to a protein within mitochondria or a target in another compartment that signals mitochondria to generate ROS. To distinguish between these alternatives, isolated rat liver mitochondria were assayed for ROS production by monitoring the oxidation of 2′,7′-dichlorodihydrofluorescin diacetate to of 2′,7′-dichlorofluorescin in the presence and absence of Bz-423. In this assay, the rate of DCF production increased after a lag period during which endogenous reducing equivalents were consumed and the acetate moieties on the probe were hydrolyzed to yield 2′,7′-dichlorodihydrofluorescin, the redox-active species.

[3] = test system: B cells; assay: collapse of mitochondrial transmembrane potential, DiOC6(3); format: cell-based; conditions: by 5 hours
Description: To detect O2^−, cells are incubated with DHE (10 μM) for 30 min at 37° C. and are analyzed by flow cytometry to measure ethidium fluorescence. Flow analysis of mitochondrial transmembrane potential (ψm) is conducted by labeling cells with DiOC6(3) (20 nM) for 15 min at 37 degrees C. A positive control for disruption of ψm is established using carbonyl cyanide m-chlorophenylhydrazone (CCCP, 50 μM). Caspase activation assays are performed with FAM-VAD-fluoromethylketone. Processing of the substrate is evaluated by flow cytometry.
To characterize the death mechanism engaged by Bz-423, intracellular ROS, ΔΨm, cytochrome c release, caspase activation, and DNA fragmentation were measured over time (the results presented are for B cells but do characterize the response in many different cell types). The first event detected after exposure to Bz-423 is an increase in the fraction of cells that stain with dihyroethedium (DHE), a redox-sensitive agent that reacts specifically with O2^−.
Collapse of ΔΨm was detected using DiOC6(3), a mitochondria-selective potentiometric probe.

[4] = test system: migration inhibitory factor (MIF); assay: gene expression profiling of treated cells; format: cell-based, human
Source text: In response to antigenic or mitogenic stimulation, lymphocytes secrete protein mediators, one of which is named migration inhibitory factor (MIF) for its ability to prevent the migration of macrophages in vitro. MIF may be an anti-tumor agent. In addition, the ability of MIF to prevent the migration of macrophages may be exploited for treating wounds. MIF may alter the immune response to different antigens. MIF links chemical and immunological detoxification systems. MIF was induced approximately 10-fold by Bz-423. Thus, the present invention contemplates the use of MIF as a target of the compounds of the present invention.
In vitro testing with Ramos cells to determine the changes in gene expression (at the level of mRNA) induced by Bz-423 was performed by culturing cells at a density of 500,000 cells per ml. Solvent control (DMSO, final concentration 0.1% V/V]), Bz-423, or Bz-OMe (10 μM) was added to cells. After 4 h, cells were harvested and RNA prepared using Trizol Reagent (#15596-018, Life Technologies, Rockville, Md.) and the RNeasy Maxi Kit (#75162, Qiagen, Valencia, Calif.) according to manufacturers protocols. Single stranded cDNA was synthesized by reverse transcription using poly (A) RNA present in the starting total RNA sample. […] Hybridization results were quantified using a GeneArray scanner and analysis carried out according to the instructions provided by Affymetrix.

[5] = test system: ornithine decarboxylase (ODC); assay: ODC activity in treated cells, conversion of 3H-ornithine to putrescine; format: cell-based; conditions: cells treated 4 h
Description: In these experiments, the conversion of ornithine to putrescine was quantified using ^3H-ornithine. For comparisons, control cells were treated with vehicle control or difluoromethyl ornithine (DFMO), a potent inhibitor of ornithine decarboxylase (like Bz-423, DFMO is a potent anti-proliferative agent). […] The reduction in ODC activity was paralleled by a decrease in ODC protein levels measured under the same conditions.
As described above, Bz-423 induced apoptosis was signaled by an ROS response that arose from MRC complex III as a result of the state 3 to 4 transition. It was next sought to determine if the ROS response, critical for apoptosis, also mediated these effects on ODC. If the ROS was required for the decrease in ODC activity, it would likewise be implicated as potentially part of the anti-proliferative response to Bz-423. To test this, Ramos cells were treated with Bz-423, DFMO, or vehicle control for 4 h. In parallel, a second group of cells was pre-incubated with MnTBAP to limit the ROS and then cultured with Bz-423, DFMO, and vehicle control.

[6] = test system: sub-mitochondrial particles; assay: redox cycling, NADH and NAD(P)H oxidation assays with sub-mitochondrial particles; format: biochemical; conditions: SMPs
Description: By contrast, replacing the hydroxyl with chlorine or azide, or methylating the phenol effectively abolishes the cytotoxic activity of Bz-423. […] Such agents accept an electron from MRC enzymes and transfer it back to the chain at point of higher reducing potential. This type of ‘redox cycling’ consumes endogenous reducing equivalents (e.g., glutathione) along with […] nucleotides and results in cell death. To distinguish between these alternatives, it was determined whether Bz-423 redox cycles in the presence of sub-mitochondrial particles using standard NADH and NAD(P)H oxidation assays.

[7] = test system: Ramos cells; assay: cytotoxicity versus antiproliferation in media with 10% FBS; format: cell-based, human; conditions: >20 μM
Description: Like most 1,4-benzodiazepines, Bz-423 binds strongly to bovine serum albumin (BSA), which reduces the effective concentration of drug free in solution. For example, in tissue culture media containing 10% (v/v) fetal bovine serum (FBS), ca. 99% of the drug is bound to BSA. Therefore, cell culture cytotoxicity assays are conducted in media with 2% FBS to reduce binding to BSA and increase the free [Bz-423]. Under these conditions, the dose response-curve is quite sharp such that there is a limited concentration range at which Bz-423 is only partly effective. Since some benzodiazepines are known to have anti-proliferative properties, the effect of Bz-423 at concentrations <ED50 were carefully analyzed and observed that in addition to inducing apoptosis, Bz-423 prevented cell growth after 3 d in culture. In these low serum conditions, the cytotoxic and anti-proliferative effects overlapped making it difficult to study each effect independently. […] While higher amounts of drug may also block proliferation, it caused apoptosis well before the effects on proliferation could be observed.

[8] = test system: Namalwa ρ0 cells; assay: ROS response in cells devoid of mtDNA; format: cell-based
Description: ROS in response to Bz-423. Complexes I-IV in the MRC are partially encoded by mitochondrial DNA (mtDNA). […] Because ethidium bromide is toxic to Ramos cells, these experiments were conducted with Namalwa B cells, another mature B cell line.

[9] = test system: panel of cells; assay: antiproliferation of Bz-Cl against the panel of cells, 3 d; format: cell-based; conditions: after 3 d

Question: Which “inhibition of mitochondrial ATPase activity” value [1] does the source give for `CN1C(=O)CN=C(c2ccc(Cl)cc2)c2cc(Cl)ccc21` [4-Cl-diazepam, 4-chlorodiazepam] here?
Answer: do not significantly inhibit

Question: `CCC(C)N(C)C(=O)c1cc2ccccc2c(-c2ccccc2Cl)n1` (stereo not shown) [PK11195] was tested. Which “inhibition of mitochondrial ATPase activity” value [1] did it give?
Answer: do not significantly inhibit

Question: `CN1C(=O)C(Cc2ccc3ccccc3c2)N=C(c2ccc(O)cc2)c2cc(Cl)ccc21` (stereo not shown) [Bz-423] was tested. Which ROS production [2] did it give?
Answer: does not stimulate ROS

Question: And the “increase of the rate of ROS production versus control” value [2]?
Answer: nearly two-fold

Question: What about the “cells with collapse of ΔΨm” value [3] of the same compound?
Answer: > 90 % of cells

Question: What about the “induction of MIF” value [4] of the same compound?
Answer: approximately 10 fold

Question: What about the “effect on ODC activity” value [5] of the same compound?
Answer: significantly reduced ODC activity in a dose-dependant fashion

Question: What about the “substrate oxidation (redox cycling)” value [6] of the same compound?
Answer: does not lead to substrate oxidation

Question: What about the cellular effect observed [7] of the same compound?
Answer: only apoptosis was observed

Question: What about the ROS response [8] of the same compound?
Answer: did not result in an ROS response

Question: How did the “ED50 for reduced proliferation compared with Bz-423” value [9] turn out when `CN1C(=O)C(Cc2ccc3ccccc3c2)N=C(c2ccc(Cl)cc2)c2cc(Cl)ccc21` (stereo not shown) [Bz-Cl] was run?
Answer: comparable ED50 values

Question: How did the ROS production [2] turn out when antimycin A [reference compound] was run?
Answer: active

Question: And the “increase of the rate of ROS production versus control” value [2]?
Answer: nearly two-fold
